Assay results taken from US20260250325A1, “Antiviral Polypeptide Membrane Fusion Inhibitor, and Preparation Method and Application Thereof” (priority 2025, published 2026).
Where a SMILES comes first, the peptide text is derived from it. The star is where a group is joined. Succinyl(4-O-cholesteryl) = CC(C)CCC[C@@H](C)[C@H]1CC[C@H]2[C@@H]3CC=C4C[C@@H](OC(=O)CCC(=O)*)CC[C@]4(C)[C@H]3CC[C@]12C

Legend:
hMPV-N46 (127-172) = target: T1, hMPV-N46 (127-172) (Human metapneumovirus, UniProt Q6WB98); assay: SPR affinity to hMPV-N46 coupled on CM5 chip; type: binding
T1 construct: hMPV-N46 (127-172)
Procedure: hMPV and hPIV were two viruses having a typical Class I fusion protein-F protein. An F protein precursor F0 was cracked into F1 and F2 subunits. […] When the compound flowed through a chip surface, changes in an SPR signal were monitored in real time, binding and dissociation processes were recorded, and a binding rate constant (ka) and a dissociation rate constant (kd) were further obtained through kinetic analysis, thereby calculating an equilibrium dissociation constant (KD=kd/ka).
A CM5 chip with a catalog number 29149603, an amino coupling reagent kit with a catalog number BR100050, HBS-EP+Buffer (10×), sodium acetate (pH 4.0), and a 10 mM glycine-HCl buffer (pH 2.0) were all purchased from GE Health.
CM5 chip coupling: Channels 2 and 4 of the CM5 chip were activated for 7 min by using a freshly-prepared mixture of 50 mM Hydroxy succinimide (NHS) and 200 mM 1-(3-Dimethylaminopropyl)-3-ethylcarbodiimide (EDC) according to 1:1; and then, hMPV-N46 or hPIV-N51 was diluted and dissolved with sodium acetate with 4.0 pH to a concentration of 30 μM, with a flow rate of 10 μl/min and time of 600 s. An experimental buffer was HBS-EP+buffer (1×). Finally, the chip was blocked with 1 M ethanolamine. The instrument was set to a temperature of 25° C.
Affinity detection: the buffer used in the experiment was HBS-EP+buffer (1×), and a multi-cycle dynamic mode was used. Channels 1 and 3 of the chip served as blank reference channels; polypeptides to be detected sequentially flowed through Channels 2 and 4 at concentrations of 0 μM, 0.04 µM, 0.12 µM, 0.37 μM, 1.11 µM, 3.33 µM, 10 µM, and 30 μM; the flow rate was 30 μl/min, binding was performed for 180 s, and dissociation was performed for 120 s. Finally, the chip was regenerated by injecting 10 mM glycine (pH 2.0). The instrument was set to a temperature of 25° C.

RSV A long virus strain = type: cell-based; conditions: RSV A long virus strain, HEp-2 cells, plaque reduction, 1 day; read-out: IC50
Summary of the method: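 HEp-2 cells (30000/well) infected with 100 PFU virus premixed 1 h with compound (8 concentrations, duplicate); after 2 h adsorption, cultured 1 day at 37 °C under 0.8% CMC overlay with compound. Plaques immunostained (RSV antibody, TrueBlue) and counted; IC50 and CC50 by non-linear fitting of % inhibition versus virus and cell controls.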

T1 sequence (Q6WB98 127-172): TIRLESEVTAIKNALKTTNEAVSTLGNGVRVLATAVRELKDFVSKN

Work on `CC[C@H](C)[C@H](NC(=O)[C@H](CCCCN)NC(=O)[C@H](CCCCN)NC(=O)[C@H](CC(C)C)NC(=O)[C@H](CO)NC(=O)[C@H](CCC(=O)O)NC(=O)[C@H](CCC(=O)O)NC(=O)[C@@H](NC(=O)[C@H](CCCCN)NC(=O)[C@H](CCCCN)NC(=O)[C@H](CC(N)=O)NC(=O)[C@@H](NC(=O)[C@H](CCC(=O)O)NC(=O)[C@H](CCC(=O)O)NC(=O)[C@@H](NC(=O)[C@H](CCCCN)NC(=O)[C@H](CCCCN)NC(=O)[C@H](CC(=O)O)NC(=O)[C@H](Cc1ccccc1)NC(=O)[C@H](CCC(=O)O)NC(=O)[C@H](CC(=O)O)NC(=O)[C@H](Cc1c[nH]c2ccccc12)NC(C)=O)[C@@H](C)CC)C(C)C)[C@@H](C)CC)C(=O)N[C@@H](CCC(=O)O)C(=O)N[C@@H](CCC(=O)O)C(=O)N[C@@H](CO)C(=O)N[C@@H](CC(=O)O)C(=O)N[C@@H](CCCCN)C(=O)N[C@@H](CCCCN)C(=O)N[C@@H](CC(C)C)C(=O)N[C@@H](CCC(=O)O)C(=O)N[C@@H](C)C(=O)N[C@@H](C)C(=O)N[C@@H](C)C(=O)N[C@@H](CCCCN)C(=O)N[C@@H](CCCCNC(=O)CCC(=O)O[C@H]1CC[C@@]2(C)C(=CC[C@H]3[C@@H]4CC[C@H]([C@H](C)CCCC(C)C)[C@@]4(C)CC[C@@H]32)C1)C(N)=O` [Compound 13] (Ac-WDEFDKKIEEVNKKIEESLKKIEESDKKLEAAAKK(Succinyl(4-O-cholesteryl))-NH2) yielded a Kd (hMPV-N46 (127-172)) of 3210 nM and an IC50 (RSV A long virus strain) of 13 nM.

In the case of `CC[C@H](C)[C@H](NC(=O)[C@H](CCCCN)NC(=O)[C@H](CCCCN)NC(=O)[C@H](CC(C)C)NC(=O)[C@H](CO)NC(=O)[C@H](CCC(=O)O)NC(=O)[C@H](CCC(=O)O)NC(=O)[C@@H](NC(=O)[C@H](CCCCN)NC(=O)[C@H](CCCCN)NC(=O)[C@H](CC(N)=O)NC(=O)[C@@H](NC(=O)[C@H](CCC(=O)O)NC(=O)[C@H](CCC(=O)O)NC(=O)[C@@H](NC(=O)[C@H](CCCCN)NC(=O)[C@H](CCCCN)NC(=O)[C@H](CCCCN)NC(=O)[C@H](CC(=O)O)NC(=O)[C@H](Cc1ccccc1)NC(=O)[C@H](CCC(=O)O)NC(=O)[C@H](CC(=O)O)NC(C)=O)[C@@H](C)CC)C(C)C)[C@@H](C)CC)C(=O)N[C@@H](CCC(=O)O)C(=O)N[C@@H](CCC(=O)O)C(=O)N[C@@H](CO)C(=O)N[C@@H](CC(=O)O)C(=O)N[C@@H](CCCCN)C(=O)N[C@@H](CCCCN)C(=O)N[C@@H](CC(C)C)C(=O)N[C@@H](CCC(=O)O)C(=O)N[C@@H](CCC(=O)O)C(=O)N[C@H](C(=O)NCC(=O)N[C@@H](CO)C(=O)NCC(=O)N[C@@H](CO)C(=O)NCC(=O)N[C@@H](CCCCNC(=O)CCC(=O)O[C@H]1CC[C@@]2(C)C(=CC[C@H]3[C@@H]4CC[C@H]([C@H](C)CCCC(C)C)[C@@]4(C)CC[C@@H]32)C1)C(N)=O)C(C)C` [Compound 15] (Ac-DEFDKKKIEEVNKKIEESLKKIEESDKKLEEVGSGSGK(Succinyl(4-O-cholesteryl))-NH2), the Kd (hMPV-N46 (127-172)) is reported as 38.1 nM and the IC50 (RSV A long virus strain) is reported as 10.4 nM.

`CC[C@H](C)[C@H](NC(=O)[C@H](CCCCN)NC(=O)[C@H](CCCCN)NC(=O)[C@H](CC(C)C)NC(=O)[C@H](CO)NC(=O)[C@H](CCC(=O)O)NC(=O)[C@H](CCC(=O)O)NC(=O)[C@@H](NC(=O)[C@H](CCCCN)NC(=O)[C@H](CCCCN)NC(=O)[C@H](CC(N)=O)NC(=O)[C@@H](NC(=O)[C@H](CCC(=O)O)NC(=O)[C@H](CCC(=O)O)NC(=O)[C@@H](NC(=O)[C@H](CCCCN)NC(=O)[C@H](CCCCN)NC(=O)[C@H](CC(=O)O)NC(=O)[C@H](Cc1ccccc1)NC(=O)[C@H](CCC(=O)O)NC(=O)[C@H](CC(=O)O)NC(=O)[C@H](CO)NC(C)=O)[C@@H](C)CC)C(C)C)[C@@H](C)CC)C(=O)N[C@@H](CCC(=O)O)C(=O)N[C@@H](CCC(=O)O)C(=O)N[C@@H](CO)C(=O)N[C@@H](CC(=O)O)C(=O)N[C@@H](CCCCN)C(=O)N[C@@H](CCCCN)C(=O)N[C@@H](CC(C)C)C(=O)N[C@@H](CCC(=O)O)C(=O)N[C@@H](C)C(=O)N[C@@H](C)C(=O)N[C@@H](C)C(=O)N[C@@H](CCCCN)C(=O)N[C@@H](CCCCNC(=O)CCC(=O)O[C@H]1CC[C@@]2(C)C(=CC[C@H]3[C@@H]4CC[C@H]([C@H](C)CCCC(C)C)[C@@]4(C)CC[C@@H]32)C1)C(N)=O` [Compound 16] (Ac-SDEFDKKIEEVNKKIEESLKKIEESDKKLEAAAKK(Succinyl(4-O-cholesteryl))-NH2) showed a Kd (hMPV-N46 (127-172)) of 3060 nM and an IC50 (RSV A long virus strain) of 10.3 nM.

Work on `CC[C@H](C)[C@H](NC(=O)[C@H](CCCCN)NC(=O)[C@H](CCCCN)NC(=O)[C@H](CC(C)C)NC(=O)[C@H](CO)NC(=O)[C@H](CCC(=O)O)NC(=O)[C@H](CCC(=O)O)NC(=O)[C@@H](NC(=O)[C@H](CCCCN)NC(=O)[C@H](CCCCN)NC(=O)[C@H](CC(N)=O)NC(=O)[C@@H](NC(=O)[C@H](CCC(=O)O)NC(=O)[C@H](CCC(=O)O)NC(=O)[C@@H](NC(=O)[C@H](CCCCN)NC(=O)[C@H](CCCCN)NC(=O)[C@H](CC(=O)O)NC(=O)[C@H](Cc1ccccc1)NC(=O)[C@H](CCC(=O)O)NC(=O)[C@H](CC(=O)O)NC(=O)[C@H](CO)NC(C)=O)[C@@H](C)CC)C(C)C)[C@@H](C)CC)C(=O)N[C@@H](CCC(=O)O)C(=O)N[C@@H](CCC(=O)O)C(=O)N[C@@H](CO)C(=O)N[C@@H](CC(=O)O)C(=O)N[C@@H](CCCCN)C(=O)N[C@@H](CCCCN)C(=O)N[C@@H](CC(C)C)C(=O)NCC(=O)N[C@@H](CO)C(=O)NCC(=O)N[C@@H](CO)C(=O)NCC(=O)N[C@@H](CCCCNC(=O)CCC(=O)O[C@H]1CC[C@@]2(C)C(=CC[C@H]3[C@@H]4CC[C@H]([C@H](C)CCCC(C)C)[C@@]4(C)CC[C@@H]32)C1)C(N)=O` [Compound 20] (Ac-SDEFDKKIEEVNKKIEESLKKIEESDKKLGSGSGK(Succinyl(4-O-cholesteryl))-NH2) yielded a Kd (hMPV-N46 (127-172)) of 19100 nM and an IC50 (RSV A long virus strain) of 19.8 nM.

For `CC[C@H](C)[C@H](NC(=O)[C@H](CCCCN)NC(=O)[C@H](CCC(=O)O)NC(=O)[C@H](CC(C)C)NC(=O)[C@H](CO)NC(=O)[C@H](CCC(N)=O)NC(=O)[C@H](CC(N)=O)NC(=O)[C@@H](NC(=O)[C@H](CCCCN)NC(=O)[C@H](CCC(=O)O)NC(=O)[C@H](CC(N)=O)NC(=O)[C@@H](NC(=O)[C@H](CCC(N)=O)NC(=O)[C@H](CO)NC(=O)[C@H](C)NC(=O)[C@H](CC(=O)O)NC(=O)[C@H](Cc1ccccc1)NC(=O)[C@@H](NC(=O)[C@H](CC(C)C)NC(=O)[C@H](CCC(=O)O)NC(=O)[C@H](CC(=O)O)NC(=O)[C@H](Cc1ccc(O)cc1)NC(C)=O)C(C)C)C(C)C)[C@@H](C)CC)C(=O)N[C@@H](CCCNC(=N)N)C(=O)N[C@@H](CCCCN)C(=O)N[C@@H](CO)C(=O)N[C@@H](CC(=O)O)C(=O)N[C@@H](CCC(=O)O)C(=O)N[C@@H](CC(C)C)C(=O)N[C@@H](CC(C)C)C(=O)N[C@@H](Cc1c[nH]cn1)C(=O)N[C@@H](CC(N)=O)C(=O)N[C@H](C(=O)NCC(=O)N[C@@H](CO)C(=O)NCC(=O)N[C@@H](CO)C(=O)NCC(=O)N[C@@H](CCCCNC(=O)CCC(=O)O[C@H]1CC[C@@]2(C)C(=CC[C@H]3[C@@H]4CC[C@H]([C@H](C)CCCC(C)C)[C@@]4(C)CC[C@@H]32)C1)C(N)=O)C(C)C` [Compound 25] (Ac-YDELVFDASQVNEKINQSLEKIRKSDELLHNVGSGSGK(Succinyl(4-O-cholesteryl))-NH2), the Kd (hMPV-N46 (127-172)) was 21100 nM and the IC50 (RSV A long virus strain) was 28.7 nM.
